For test [1], the system named is untransfected HEK293T cells. Kind of test: Whole-cell patch-clamp on untransfected HEK293T cell. It counts as cell-based, human. As to conditions: 100 μM CNS4. As to the method: Whole‐cell patch‐clamp electrophysiology studies were carried out in HEK‐293T cells expressing recombinant NMDA receptors that lack native functional NMDA receptors.[29], [30], [31] An equal quantity of (1 μg) cDNA for GluN1a, GluN2 subunits were co‐transfected 24‐48 h before patch‐clamp electrophysiology assay. […] Cells were carefully washed before performing experiments and were used for the electrophysiology experiments after 24 to 48 h incubation at 37°C with 5%CO2. The whole‐cell patch‐clamp electrophysiology assay was performed using semi‐automated patch‐clamp equipment, Port‐a‐Patch (Nanion Technologies GmbH). Following are the constituents of various solutions used for patch‐clamp electrophysiology: internal solution ([mM] NaCl 10, EGTA 20, CsF 110, HEPES 10), Mg‐free external (recording) solution ([mM] NaCl 140, KCl 4, CaCl2 2, HEPES 10, D‐GlucoseMonohydrate 5), and Mg‐free seal enhancer solution ([mM] NaCl 80, KCl 3, CaCl2 35, HEPES 10). Nanion NPC chips with […] resistance were used for the HEK‐293T cell recordings.
FIGURE 1 CNS4 sensitizes ambient concentration of agonists in GluN2 subunit dependent manner. […] Statistical significance was calculated from the Wilcoxon matched‐pairs signed rank test, except the comparison between 1/2A & 1/2AB CNS4 with no agonist data, which was done by unpaired t‐test. […]
(In patch-clamp work, channel activity is measured electrically.)

In test [2] the test system is GluN1/2A/2B triheteromeric (1/2AB) NMDA receptors. Kind of test: TEVC agonist dose-response, Xenopus oocytes expressing 1/2AB. It counts as cell-based. From the text: NMDA receptor constructs: cDNA encoding the NMDA receptor1a subunit (GluN1a) was obtained from Dr. Nakanishi (Kyoto, Japan). cDNA encoding the GluN2B (pci_sepGluN2B), originally developed in the Malinow lab,[33] was purchased from Addgene (cat# 23998), Cambridge, MA. cDNA encoding the GluN2C and GluN2D were purchased from GenScript, New Jersey, USA. Mutated GluN1, 2A and 2B cDNA constructs capable of assembling as GluN1/2A/2B triheteromeric (1/2AB) receptors[34] were obtained from Dr. Paoletti (Laboratoire de Neurobiologie, CNRS). These constructs have been previously tested for 1/2AB receptor activity of GluN1/2A receptor‐selective potentiators.[35] […] Plasmids were linearized with NotI (GluN1a and all five GluN1 mutants) or Avrll (GluN2B), or BstB1 (GluN2C and GluN2D) and transcribed in vitro with T7 (GluN1a, GluN1/2A, GluN2B, GluN2C & GluN2D), and SP6 (GluN1 mutants) RNA polymerase using the mMessage mMachine transcription kits (Invitrogen by Thermo Fisher Scientific).
Stage IV frog oocytes were obtained from Xenopus‐I, (Ann Arbor, MI, USA). NMDA receptor subunit cRNAs were suspended in nuclease free sterile water. GluN1A, GluN2B, GluN2C, GluN2D and GluN1/2A/2B cRNAs were mixed in a ratio of 1:1–3. 50 nL of the final cRNA mixture was microinjected (40–70 ng total) into the oocyte cytoplasm. Oocytes were incubated in ND‐96 solution at 18°C prior to electrophysiological recordings (2–5 days).
Electrophysiological responses were measured using a standard two‐microelectrode voltage‐clamp workstation (Warner Instruments model OC‐725C) designed to provide a fast clamp of large cells. The recording buffer contained 116 mM NaCl, 2 mM KCl, 0.3 mM BaCl2, and 5 mM HEPES, pH 7.4. Response magnitude was determined in Xenopus oocytes expressing different NMDA receptor subunits (GluN1/2A, 1/2B, 1/2C, 1/2D, and 1/2A/2B) by the steady plateau response elicited by bath application of different agonist concentrations. […] All data points were obtained from the steady state currents unless stated otherwise. Dose–response relationships were fit to an appropriate curve‐fitting equation using GraphPad Prism‐7. Non‐linear regression was used to calculate EC50, IC50, and fold change or percentage maximal response. Curves were fit using the following equations as performed in the previous studies, [37]: Y=100/1+10^LogEC50−XorY=Bottom+Top−Bottom/1+10^LogEC50−X . Statistical significance was determined at the overall alpha level 0.05, using appropriate statistical methods as described in all figure captions. Technical and biological replicates are explicitly mentioned in each figure legend, as n = X (Y). X represents technical repeats (number of traces) and Y represents biological repeats (number of oocytes or HEK293T cells studied). […]

`O=C(NC(=S)N1CCCCC1c1cccnc1)c1ccc(F)cc1` (stereo not shown) [CNS4]: the Current response result in test [1] was “did not produce any measurable current response”. The “Reduction in glutamate efficacy with vs without CNS4” value in test [2] (30 μM CNS4) turned out to be 5.3 fold. Further, the “Glycine efficacy: relative fold change in current at highest glycine concentration” value in test [2] (with 30 μM CNS4, 100 μM glutamate constant, relative to 1 μM glycine, p = .0019) is 1.37 ± 0.08 fold. The “Glutamate efficacy: relative fold change in current at highest glutamate concentration” value in test [2] (with 30 μM CNS4, 100 μM glycine constant, relative to 1 μM glutamate, p = .0001) is 2.79 ± 0.43 fold.

The values above are taken from publication PMC10245146, “CNS4 causes subtype‐specific changes in agonist efficacy and reversal potential of permeant cations in NMDA receptors” (Pharmacology Research & Perspectives, 2023).
